Key:
[1] = target: T1, Tryptophan 2,3-dioxygenase (Homo sapiens, UniProt P48775); assay: (§1) Inhibition of N-terminal hexa-histidine tagged human TDO (19 to 388 residues) expressed in Escherichia coli Transetta (DE3) using L-tryptophan as substrate at 100 uM preincubated with enzyme for 10 mins followed by substrate addition and measured after 30 to 60 mins by microplate reader analysis relative to control; settings: time 40-70 min
Target sequence in this assay (P48775 whole entry, looked up, the tested form may be a part): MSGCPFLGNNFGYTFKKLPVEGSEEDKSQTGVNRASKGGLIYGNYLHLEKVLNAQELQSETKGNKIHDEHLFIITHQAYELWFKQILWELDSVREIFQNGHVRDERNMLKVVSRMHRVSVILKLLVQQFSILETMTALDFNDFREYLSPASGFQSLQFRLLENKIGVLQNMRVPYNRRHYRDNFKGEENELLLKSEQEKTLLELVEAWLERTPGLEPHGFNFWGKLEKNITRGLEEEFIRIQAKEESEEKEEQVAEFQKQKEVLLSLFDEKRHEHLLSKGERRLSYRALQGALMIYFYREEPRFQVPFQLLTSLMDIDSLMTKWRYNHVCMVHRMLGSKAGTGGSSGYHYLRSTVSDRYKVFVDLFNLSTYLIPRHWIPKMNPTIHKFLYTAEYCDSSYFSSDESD

[2] = target: T2, Indoleamine 2,3-dioxygenase 1 (Homo sapiens, UniProt P14902); assay: as §1, with “IDO1 (12” for “TDO (19”, “403” for “388”, “10” for “100”; settings: time 40-70 min
Target sequence in this assay (P14902 whole entry, looked up, the tested form may be a part): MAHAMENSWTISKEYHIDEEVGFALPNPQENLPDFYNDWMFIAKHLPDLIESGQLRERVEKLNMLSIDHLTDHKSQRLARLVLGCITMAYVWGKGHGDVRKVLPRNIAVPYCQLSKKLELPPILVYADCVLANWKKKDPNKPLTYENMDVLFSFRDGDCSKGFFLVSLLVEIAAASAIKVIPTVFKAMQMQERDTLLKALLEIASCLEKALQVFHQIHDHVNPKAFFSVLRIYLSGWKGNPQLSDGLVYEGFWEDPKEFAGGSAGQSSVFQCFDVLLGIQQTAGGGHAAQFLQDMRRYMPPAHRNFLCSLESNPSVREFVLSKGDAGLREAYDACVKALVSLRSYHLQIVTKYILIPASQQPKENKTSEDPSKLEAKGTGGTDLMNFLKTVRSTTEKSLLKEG

[3] = target: T2, Indoleamine 2,3-dioxygenase 1; assay: (§2) Inhibition of N-terminal hexa-histidine tagged human IDO1 (12 to 403 residues) expressed in Escherichia coli Transetta (DE3) using L-tryptophan as substrate preincubated with enzyme for 10 mins followed by substrate addition and measured after 30 to 60 mins by microplate reader analysis
Target sequence in this assay (P14902 whole entry, the tested form may be a part): as the sequence (P14902 whole entry, looked up, the tested form may be a part) above

[4] = target: T2, Indoleamine 2,3-dioxygenase 1; assay: as §2, with “as substrate at 100 uM preincubated with” for “as substrate preincubated with”, “reader analysis relative to control” for “reader analysis”; settings: time 40-70 min
Target sequence in this assay (P14902 whole entry, looked up, the tested form may be a part): as above

[5] = target: T1, Tryptophan 2,3-dioxygenase; assay: Inhibition of N-terminal hexa-histidine tagged human TDO (19 to 388 residues) expressed in Escherichia coli Transetta (DE3) using L-tryptophan as substrate preincubated with enzyme for 10 mins followed by substrate addition and measured after 30 to 60 mins by microplate reader analysis
Target sequence in this assay (P48775 whole entry, the tested form may be a part): as the sequence (P48775 whole entry, looked up, the tested form may be a part) above

[6] = target: T1, Tryptophan 2,3-dioxygenase; assay: as §1, with “10” for “100”; settings: time 40-70 min
Target sequence in this assay (P48775 whole entry, looked up, the tested form may be a part): as above

H22 = assay: Cytotoxicity against mouse H22 cells assessed as inhibition of cell growth incubated for 24 hrs by MTT assay; type: functional, cell-based; settings: H22, 24 h
MOLM-13 = assay: Cytotoxicity against human MOLM-13 cells assessed as inhibition of cell growth incubated for 24 hrs by MTT assay; type: functional, cell-based; settings: MOLM-13, 24 h
Jurkat = assay: Cytotoxicity against human Jurkat cells assessed as inhibition of cell growth incubated for 24 hrs by MTT assay; type: functional, cell-based
[7] = Cytotoxicity against […] cells assessed as inhibition of cell growth incubated for 24 hrs by MTT assay; type: functional, cell-based; settings: Mus musculus, Hepa1-6, 24 h
HepG2 = assay: Cytotoxicity against human HepG2 cells assessed as inhibition of cell growth incubated for 24 hrs by MTT assay; type: functional, cell-based; settings: HepG2, 24 h
B16 = assay: Cytotoxicity against mouse B16 cells assessed as inhibition of cell growth incubated for 24 hrs by MTT assay; type: functional, cell-based; settings: B16, 24 h

Compound	inhibition [1] [%]	inhibition [2] [%]	IC50 [3] [µM]	inhibition [4] [%]	IC50 [5] [µM]	inhibition [6] [%]	IC50 (H22) [µM]	IC50 (MOLM-13) [µM]	IC50 (Jurkat) [µM]	IC50 [7] [µM]	IC50 (HepG2) [µM]	IC50 (B16) [µM]
COC(=O)c1cc(NCc2ccccc2[N+](=O)[O-])c2cn[nH]c2c1	20	11	> 100	47	> 100	16	–	–	–	–	–	–
O=[N+]([O-])c1ccccc1CNc1cc(Br)cc2cn[nH]c12	48	4	> 100	9	> 100	35	–	–	–	–	–	–
O=[N+]([O-])c1ccc(CNc2cc(C(F)(F)F)cc3[nH]ncc23)cc1	64	52	61	61	> 100	47	–	–	–	–	–	–
O=[N+]([O-])c1ccc2[nH]c(CNc3cc(C(F)(F)F)cc4[nH]ncc34)cc2c1	69	22	> 100	38	> 100	54	–	–	–	–	–	–
NCCn1ncc2c(NCc3ccccc3[N+](=O)[O-])cc(C(F)(F)F)cc21	29	9	> 100	30	> 100	25	–	–	–	–	–	–
N#Cc1cc(NCc2ccccc2[N+](=O)[O-])c2cn[nH]c2c1	41	7	> 100	17	> 100	22	–	–	–	–	–	–
OC1CCCC(Nc2cccc(CNc3cc(C(F)(F)F)cc4[nH]ncc34)c2)C1 (stereo not drawn)	23	–	> 100	2	> 100	–	–	–	–	–	–	–
CC(C)n1ncc2c(NCc3ccccc3[N+](=O)[O-])cc(C(F)(F)F)cc21	32	7	> 100	13	> 100	35	–	–	–	–	–	–
O=C1NCc2c(NCc3ccccc3[N+](=O)[O-])cccc21	29	8	> 100	9	> 100	23	–	–	–	–	–	–
O=C(O)CNc1cccc(CNc2cc(C(F)(F)F)cc3[nH]ncc23)c1	65	–	> 100	8	> 100	–	–	–	–	–	–	–
FC(F)(F)c1cc(NCc2cccc3sccc23)c2cn[nH]c2c1	5	–	> 100	3	> 100	–	–	–	–	–	–	–
FC(F)(F)c1cc(NCC2CNC2)c2cn[nH]c2c1	49	10	> 100	22	> 100	5	–	–	–	–	–	–
O=C1NC(=O)c2c(NCc3ccccc3[N+](=O)[O-])cccc21	25	11	> 100	4	> 100	17	–	–	–	–	–	–

These reach a lower IC50 [5]. Values come first.

inhibition [1] [%]	inhibition [2] [%]	IC50 [3] [µM]	inhibition [4] [%]	IC50 [5] [µM]	inhibition [6] [%]	Compound	IC50 (H22) [µM]	IC50 (MOLM-13) [µM]	IC50 (Jurkat) [µM]	IC50 [7] [µM]	IC50 (HepG2) [µM]	IC50 (B16) [µM]
97	72	7.95	95	1.6	91	O=[N+]([O-])c1cccc(CNc2cc(Br)cc3[nH]ncc23)c1	> 20	> 20	> 20	> 20	23.6	> 20
97	83	6.02	95	2.68	92	Oc1ccc(CNc2cc(C(F)(F)F)cc3[nH]ncc23)c(Cl)c1	–	–	–	–	–	–
84	34	9.58	83	6.09	55	FC(F)(F)c1cc(NC[C@H]2CCCN2)c2cn[nH]c2c1	19.7	> 20	> 20	> 20	16.2	> 20
95	48	18.5	79	1.04	87	COc1cc(CNc2cc(Br)cc3[nH]ncc23)c([N+](=O)[O-])cc1OC	6.11	> 20	> 20	15.2	2.97	> 20
64	67	8.04	83	38.9	52	O=[N+]([O-])c1ccccc1CNc1cc(Br)cc2[nH]ncc12	–	–	–	–	–	–
98	63	58	93	0.79	96	CS(=O)(=O)c1ccc(CNc2cc(C(F)(F)F)cc3[nH]ncc23)c([N+](=O)O)c1	> 20	> 20	> 20	> 20	> 20	> 20
82	45	> 100	69	5.17	60	O=[N+]([O-])c1cccc(CNc2cc(C(F)(F)F)cc3[nH]ncc23)c1	–	–	–	–	–	–
90	19	24	69	0.46	69	FC(F)(F)c1cc(NC[C@H]2CCCCN2)c2cn[nH]c2c1	–	–	–	–	–	–
55	10	> 100	20	97	49	O=[N+]([O-])c1cc(OCc2ccccc2)ccc1CNc1cc(C(F)(F)F)cc2[nH]ncc12	–	–	–	–	–	–
94	11	> 100	17	1.69	81	O=C(O)c1cccc(CNc2cc(C(F)(F)F)cc3[nH]ncc23)c1	–	–	–	–	–	–
94	45	60	69	0.17	96	O=[N+](O)c1c(Cl)cccc1CNc1cc(C(F)(F)F)cc2[nH]ncc12	> 20	7.69	> 20	> 20	> 20	> 20
91	33	> 100	46	4.87	71	CNC(=O)c1cccc(CNc2cc(C(F)(F)F)cc3[nH]ncc23)c1	–	–	–	–	–	–
91	37	36.7	81	2.55	75	Oc1ccc(CNc2cc(C(F)(F)F)cc3[nH]ncc23)cc1	–	–	–	–	–	–
74	25	> 100	49	12.2	40	FC(F)(F)c1cccc(CNc2cc(C(F)(F)F)cc3[nH]ncc23)c1	–	–	–	–	–	–
89	24	> 100	55	2.51	68	Nc1cccc(CNc2cc(C(F)(F)F)cc3[nH]ncc23)c1	–	–	–	–	–	–
84	23	> 100	51	19.1	67	FC(F)(F)c1cc(NCc2cccc(Br)c2)c2cn[nH]c2c1	–	–	–	–	–	–
87	25	–	65	17	45	O=[N+]([O-])c1ccccc1CNc1cccc2[nH]ncc12	–	–	–	–	–	–

Source: ChEMBL document CHEMBL5108015, “4,6-Disubstituted-1H-Indazole-4-Amine derivatives with immune-chemotherapy effect and in vivo antitumor activity” (Eur J Med Chem, 2022)
